Results taken from PMC11832194, “Cystatin from Austrelaps superbus snake venom as a model for identifying potential inhibitors of Trypanosoma cruzi cruzain” (The Journal of Venomous Animals and Toxins Including …, 2025).
Read-outs that look alike come from different tables or passages of the source. No end group written: not given here.

What was measured:
[1] = biological target: epimastigote forms of clone CL B5 of Trypanosoma cruzi; experiment: In vitro trypanocidal activity on epimastigotes (CPRG, β-galactosidase); type: cell-based; settings: T. cruzi CL B5 lacZ epimastigotes, 2.5 × 10^5 parasites/mL, 72 hours at 28°C, peptides 500-62.5 µM, CPRG read-out at 590 nm
Description: To assess the trypanocidal activity of the synthetic peptides, epimastigote forms of clone CL B5 of Trypanosoma cruzi, transfected with the Escherichia coli β-galactosidase gene (lacZ), were used. The parasites were cultivated at 28°C in liver infusion tryptose (LIT) medium, supplemented with 10% fetal bovine serum (FBS) and the antibiotics penicillin and streptomycin. About 200 µL of epimastigotes at 2.5 × 10^5 parasites/mL concentration were plated in a 96-well plate. The parasites were incubated at 28°C for 72 hours with different concentrations of peptides (500-62.5 µM). Then, 50 µL of chlorophenol red-β-D-galactopyranoside (CPRG) solution was added, reaching a final concentration of 200 µM. The plate was incubated again at 37°C for 4 hours, and absorbance was monitored at 590 nm using a spectrophotometer (Synergy H1 multi-mode BIOTEK). Benznidazole was used as a positive control. The half maximal inhibitory concentration (IC50) was determined using GraphPad Prism (v.6.01) software.

cruzain = biological target: T1, cruzain (Trypanosoma cruzi, UniProt P25779); experiment: Inhibition of cruzain enzymatic (proteolytic) activity, casein substrate; type: biochemical; settings: cruzain 50 μM, peptide 500 to 62.5 μM, 1% casein substrate, Tris-HCl 0.1 M pH 8, 37°C, absorbance 280 nm, read-out: I50(µM) ± SD, inhibition of cruzain proteolytic activity
T1 construct: From 40 to 120 minutes, mature cruzain was obtained in a soluble and enzymatically active form; His tag (histidine tail); made in house; host or cells: E. coli BL21 DE3 (pET 21a (+) with the pro-cruzain gene)
Description: Cruzain at a final concentration of 50 μM was incubated for 30 minutes at 37°C with various concentrations of AsCystatin (50-6.25 μM). Subsequently, 1% casein substrate diluted in Tris-HCl 0.1 M, pH 8, was added. The mixture was incubated again for 30 minutes at 37°C, and the reaction was stopped by adding 250 μL of 20% Trichloroacetic Acid (TCA), followed by a 30-minute rest period at room temperature. Finally, the mixture was centrifuged at 10,000 × g for 15 minutes. Enzymatic activity inhibition was estimated by recording the absorbance of the supernatant at 280 nm using a microplate spectrophotometer (BioTek Eon). The concentration required to inhibit 50% of cruzain enzymatic activity was determined using GraphPad Prism 6.0 software.
The peptides designed, as mentioned in the previous section, were synthesized by AminoTech (São Paulo, Brazil). Subsequently, the ability of the synthetic peptides to inhibit cruzain enzymatic activity was assessed. For this procedure, different concentrations of each peptide (500 to 62.5 μM) were incubated with 50 μM cruzain, and the steps detailed in the section […] were carried out.

[2] = system: NCTC clone 929 fibroblasts; experiment: In vitro cytotoxicity on fibroblasts (resazurin); type: cell-based, murine; settings: NCTC929 cells, 2 × 10^4 cells per well, 48 hours 37°C 5% CO2, peptides 500-62.5 µM, absorbance 570 and 600 nm
Description: In these experiments, NCTC clone 929 fibroblasts were cultured in a 96-well plate with 180 µL of minimal essential medium (MEM) supplemented with 10% FBS, penicillin and streptomycin antibiotics. About 2 × 10^4 cells per well were cultured and incubated at 37°C for 48 hours in a 5% CO2 environment with different concentrations of synthetic peptides (500-62.5 µM). Then, 20 µL of a resazurin solution was added, reaching a final concentration of 2 mM. The plate was incubated again at 37°C for 4 hours, and absorbance was monitored at 570 and 600 nm using a Synergy H1 multi-mode spectrophotometer (BIOTEK). GraphPad Prism software determined the half-maximal cytotoxic concentration (CC50) (v.6.01). The CC50 of the reference drug benznidazole was also determined to finally determine the selectivity index

[3] = read-out: IC50 (µM) ± SD, trypanocidal activity

T1 sequence (P25779 123-337): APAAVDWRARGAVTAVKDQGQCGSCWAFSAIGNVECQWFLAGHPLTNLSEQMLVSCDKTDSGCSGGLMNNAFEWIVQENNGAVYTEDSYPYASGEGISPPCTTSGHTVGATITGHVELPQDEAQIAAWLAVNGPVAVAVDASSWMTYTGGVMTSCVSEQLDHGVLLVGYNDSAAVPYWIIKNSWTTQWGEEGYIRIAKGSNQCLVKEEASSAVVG

Substance	IC50 ([1]; SD) [µM]	IC50 (cruzain; SD) [µM]	IC50 (µM) ± SD, cytotoxic activity [2] [µM]	IC50 [1, 3] [µM]	IC50 (cruzain) [µM]
KGGLQVVTGAPWK [Pep7]	390.2 ± 2.1	388.5 ± 1.22	> 500	–	–
IPGGLSK [Pep1]	–	–	> 500	> 500	> 500
QSQVVTGAK [Pep3]	–	–	> 500	> 500	> 500
GGLQVVTGPW [Pep5]	475.5 ± 1.65	220 ± 0.48	> 500	–	–
KIPGGQVVTGPWK [Pep8]	471.3 ± 1.8	281.5 ± 2.19	> 500	–	–
QVVTG [Pep2]	–	–	> 500	> 500	> 500
KGGLQVVTGPWK [Pep6]	–	384.6 ± 0.77	> 500	> 500	–
KQVVTGK [Pep4, linear peptide derived from AsCystatin with lysine residues at each end]	–	–	> 500	> 500	> 500
